Measured values from patent publication US9211278B2, “Composition containing arylnaphthalene lignan derivative for preventing and/or treating dementia” (KOREA INSTITUTE OF SCIENCE AND TECHNOLOGY, priority 2012, dated 2015).

Columns and labels:
[1] = tested on: APP endocytosis; assay: APP endocytosis rate (confocal microscopy, reversible biotinylation); type: cell-based, human
Protocol: To test the endocytosis rate of App, 5×10^5 cells of HeLa cell line transfected with amyloid precursor protein (APP) as the substantially same method as Experimental Examples 6 and 7, seeded on poly-D-lysine coated cover glass and incubated for 24 hours. Then, 1 uM Justicidin A and APP antibody (1:100 diluted, SIG-39320, Covance) treated for 45 min at 4° C., washed out to remove free APP antibodies with culture fluid at three times. The cells were incubated at 37° C., starting endocytosis temperature, for 10, 30, and 60 min, and fixed by 4% paraformaldehyde for 15 min. Then, the cells were permeabilized by 0.1% triton X-100 for 5 min, and APP was marked by secondary fluorescent-labeled antibody (1:200 diluted, A11001, Invitrogen).
The change in the location of APP at various times was measured by confocal microscopy (LSM510, Zeiss, Germany) at 488 nm. […] (0 min). The endocytosis started at 37° C. […]
APP fluorescent intensity remained in plasma membrane compared to APP fluorescent intensity in plasma membrane at 0 min was measured.
For quantitative measurement of APP endocytosis rate, a reversible biotinylation method was used. […]
The result of western blotting was measured by band intensity to show the amount of intracellular APP (FIG. 10b; % internalization) with respect to total maAPP on the cell membrane (FIG. 10a).

[2] = tested on: O-glycosylated maAPP; assay: APP O-glycosylation, O-glycosylation antibody then APP Western blotting; type: cell-based, human; details: 1, 5, 10 uM, 4 hrs
Protocol: According to the same method as above, HeLa cell line was treated with 1, 5, 10 uM of Justicidin A for 4 hrs. Then, the 5 ul of O-glycosylation antibody (#MMS-248R, Covance) was added to 500 ug of the separated plasma membrane protein, and performed by electrophoresis and the western blotting using the APP antibody (1:2000 diluted, A8717, Sigma).

[3] = tested on: HeLa cell line transfected with the amyloid precursor protein (APP); assay: MTT cell proliferation assay (cell death); type: cell-based; details: 5 μg/ml, 8 hours
Protocol: To test the effect of Justicidin A and 5-methoxyJusticidin A on cell death, the MTT Cell Proliferation assay method (ATCC catalog #30-1010K, Manassas, USA) was used. Specifically, the HeLa cell line transfected with the amyloid precursor protein (APP) driven from human was treated with various concentrations of Justicidin A (S62-C1) or 5-methoxyJusticitdin A (S62-C2) for 8 hours, and the viable cells were quantified to show the result in FIG. 3.

[4] = tested on: beta-amyloid (Aβ40, Aβ42) formation; assay: Beta-amyloid (Aβ40, Aβ42) formation, ELISA, in APP-transfected HeLa cells; type: cell-based, human; details: HeLa-APP cells, various concentrations (FIGS. 1, 2, 6)
Protocol: To test the inhibitory effect of Justicidin A (C1) obtained in Example 2 on the beta-amyloid formation, HeLa cell line transfected with the amyloid precursor protein (APP) driven from human was cultured in DMEM solution (Cat. #11995, Gibco, USA) for use. The cell line was received from Prof. Tae-Wan Kim at Department of Pathology, Columbia University Medical Center, New York, N.Y. 10032, USA.
Specifically, the Justicidin A of Example 2 was added into the cell line culture at the amount indicated in FIG. 1, and then the produced amount of be-amyloid (Aβ40, Aβ42 was measured. Human β-Amyloid[1-40](Aβ40), Human β-Amyloid [1-42](Aβ42) Colorimetric ELISA kit (#KHB3482 and #KHB3442; BioSource International, Inc., U.S.A.) were used to quantify two types of beta-amyloid (Aβ40, Aβ42).
The 5-methoxyJusticidin A (C2) of Example 2 was added into the cell line culture at the amount indicated in FIG. 2, and then the produced amount of be-amyloid was measured according to the method of Example 1.1. The group which was not treated with 5-methoxyjusticidin A was used as a negative control.
The compounds were used at the amount of FIG. 6, and measured for the beta-amyloid (Aβ40, Aβ42) formation according to the same method of Experimental Example <1-1>. The group treated with Justicidin A(C1) was a positive control and the group with no treatment was a negative control.

[5] = tested on: PC12 cell; assay: Cell viability assay, Cell counting kit-8; type: cell-based; details: 125 nM to 1000 nM, 24 hrs
Protocol: Firstly, cell viability assay was performed for identifying whether Justicidin A had toxicity to normal brain cell line. Cell viability assay performed using Cell counting kit-8 (CCK-8, WST-8, Kamimashikigun, Kumamoto, Japan). More particularly, 1.5×10^4 cells of PC12 (Cell No. RCB0009, RIKEN BRC Cell Bank, Tsukuba, Ibaraki, Japan) were seeded to each well of 96-well plate, and incubated for 24 hrs. Then various concentrations of Justicidin A were treated for 24 hrs, and measured by Cell counting kit-8.

[6] = tested on: alpha-secretase product (sAPPα); assay: Alpha-secretase product (sAPPα) production, Western blotting; type: cell-based, human; details: 8 hours, concentrations of FIG. 5
Protocol: The test result confirmed that Justicidin A (C1) obtained in Example 2 and 5-methoxyJusticidin A increased alpha-secretase product (sAPPα). Specifically, the produced amount of sAPPα was measured by treating the cultured cell line (the HeLa cell line transfected with the amyloid precursor protein (APP) driven from human) with Justicidin A (S62-C1) or 5-methoxyJusticitdin A (S62-C2) at a concentration of FIG. 5, culturing it for 8 hours, and measuring the produced amount of sAPPα according to the Western blotting. The negative control was the group with no treatment of Justicidin A or 5-methoxyJusticidin A.

## COc1cc2c(OC)c3c(c(-c4ccc5c(c4)OCO5)c2cc1OC)C(=O)OC3 [Justicidin A]
[1]; 1 uM pre-treated, 5, 10, 30 min at 37° C.
  APP endocytosis (reversible biotinylation): showed reduced endocytosis of APP
[1]; 1 uM pre-treatment, confocal microscopy, 10, 30, 60 min at 37° C.
  APP endocytosis (APP fluorescent intensity remaining in plasma membrane): APP endocytosis was delayed
[2]
  O-glycosylated maAPP: the O-glycosylated maAPP was increased
[3]
  cell lines died: ≤ 20%
[4]
  inhibition of beta-amyloid (Aβ40, Aβ42) formation: inhibited the beta-amyloid (Aβ40, Aβ42) formation at a concentration-dependent manner
[5]
  toxicity to PC12 cell: has no toxicity to PC12 cell
[6]
  formation of alpha-secretase product (sAPPα): activated the formation of alpha-secretase product (sAPPα)
